Laboratory results published in publication PMC8774285, “In Silico, In Vitro and In Vivo Analysis of Tanshinone IIA and Cryptotanshinone from Salvia miltiorrhiza as Modulators of Cyclooxygenase-2/mPGES-1/Endothelial Prostaglandin EP3 Pathway” (Biomolecules, 2022).

What was measured:
Type in all cases: biochemical
[1] = biological target: T1, cyclooxygenase-1 (COX-1) (Ovis aries, UniProt P05979); test: isolated COX-1 activity assay ([…] AA, 12-HHT formation); […] residual activity at […]
T1 construct: gene PTGS1; purified ovine COX-1
T1 sequence (P05979 25-600): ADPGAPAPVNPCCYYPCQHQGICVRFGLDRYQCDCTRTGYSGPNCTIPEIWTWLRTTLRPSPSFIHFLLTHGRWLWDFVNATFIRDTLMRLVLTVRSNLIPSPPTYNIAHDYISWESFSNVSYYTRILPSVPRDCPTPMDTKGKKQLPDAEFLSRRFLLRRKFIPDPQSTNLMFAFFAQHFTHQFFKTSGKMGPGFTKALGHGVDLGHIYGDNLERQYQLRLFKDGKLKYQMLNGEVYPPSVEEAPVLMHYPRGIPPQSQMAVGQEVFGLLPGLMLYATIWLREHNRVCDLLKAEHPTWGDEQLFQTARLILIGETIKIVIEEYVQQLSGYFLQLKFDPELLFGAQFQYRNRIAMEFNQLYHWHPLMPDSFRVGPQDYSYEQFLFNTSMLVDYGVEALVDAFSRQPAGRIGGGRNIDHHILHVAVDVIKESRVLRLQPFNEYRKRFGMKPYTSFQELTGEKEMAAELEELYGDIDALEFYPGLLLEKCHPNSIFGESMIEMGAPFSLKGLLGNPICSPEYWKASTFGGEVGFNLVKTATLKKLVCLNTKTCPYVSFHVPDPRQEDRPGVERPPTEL

[2] = biological target: T2, cyclooxygenase-2 (COX-2) (Homo sapiens, UniProt P35354); test: isolated COX-2 activity assay ([…] AA, 12-HHT formation); […] residual activity at […]
T2 construct: gene PTGS2; recombinant human COX-2
T2 sequence (P35354 18-604): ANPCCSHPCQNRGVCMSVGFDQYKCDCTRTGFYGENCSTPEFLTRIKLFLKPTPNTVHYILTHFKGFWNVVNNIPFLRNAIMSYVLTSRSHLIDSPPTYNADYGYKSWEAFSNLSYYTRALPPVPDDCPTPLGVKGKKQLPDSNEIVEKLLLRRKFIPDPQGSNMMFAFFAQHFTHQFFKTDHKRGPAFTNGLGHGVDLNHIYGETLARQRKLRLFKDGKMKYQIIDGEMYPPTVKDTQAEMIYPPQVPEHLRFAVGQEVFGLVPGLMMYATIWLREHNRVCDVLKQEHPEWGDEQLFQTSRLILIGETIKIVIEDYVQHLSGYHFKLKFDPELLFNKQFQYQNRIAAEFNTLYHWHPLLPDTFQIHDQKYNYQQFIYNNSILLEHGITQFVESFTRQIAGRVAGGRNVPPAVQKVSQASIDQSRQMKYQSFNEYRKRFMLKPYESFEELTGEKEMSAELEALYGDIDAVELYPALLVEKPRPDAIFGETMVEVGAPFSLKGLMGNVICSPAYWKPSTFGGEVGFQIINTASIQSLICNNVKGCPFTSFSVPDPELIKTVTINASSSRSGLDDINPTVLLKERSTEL

[3] = biological target: T3, 5-lipoxygenase (5-LO) (Homo sapiens, UniProt P09917); test: isolated 5-LO activity assay ([…] AA, products by RP-HPLC)
T3 construct: gene ALOX5; recombinant, expressed in E. coli BL21 (DE3) with pT3-5-LO, purified on ATP-agarose
T3 sequence (P09917 1-674): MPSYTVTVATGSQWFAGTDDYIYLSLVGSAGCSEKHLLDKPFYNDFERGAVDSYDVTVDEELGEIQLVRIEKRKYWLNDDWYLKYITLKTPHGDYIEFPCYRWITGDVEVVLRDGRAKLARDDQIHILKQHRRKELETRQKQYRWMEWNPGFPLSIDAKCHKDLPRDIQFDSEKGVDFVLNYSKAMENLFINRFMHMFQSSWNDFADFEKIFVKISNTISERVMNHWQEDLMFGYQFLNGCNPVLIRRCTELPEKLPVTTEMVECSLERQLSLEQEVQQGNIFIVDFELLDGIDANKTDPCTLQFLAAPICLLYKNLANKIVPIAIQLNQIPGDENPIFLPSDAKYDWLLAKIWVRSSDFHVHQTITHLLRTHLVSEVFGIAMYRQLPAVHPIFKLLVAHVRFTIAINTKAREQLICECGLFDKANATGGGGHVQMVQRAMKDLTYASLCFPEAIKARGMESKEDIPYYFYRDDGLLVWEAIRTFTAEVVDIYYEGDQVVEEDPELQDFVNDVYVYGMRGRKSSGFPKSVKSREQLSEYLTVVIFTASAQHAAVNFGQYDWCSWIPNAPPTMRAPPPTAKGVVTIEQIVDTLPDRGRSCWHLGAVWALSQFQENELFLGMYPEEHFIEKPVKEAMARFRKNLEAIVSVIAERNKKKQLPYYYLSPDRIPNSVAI

## C[C@H]1COC2=C1C(=O)C(=O)c1c2ccc2c1CCCC2(C)C [CRY, cryptotanshinone]
[1]
  IC50: > 30 µM
[2]
  IC50: > 30 µM
[3]
  IC50: 7.1 µM
